Consider 1 molecule from US8822500B2, “Tyrosine kinase inhibitors” (Chembridge Corporation, priority 2008, dated 2014).

SMILES strings stand for the structures. Where “and” joins values, the source holds several entries; their conditions need not be identical. Identical values can stand only once. Some results are limits rather than exact numbers.

Assay [1] relates to NPM-ALK C1156Y BaF3 cells. The assay can be described thus: BaF3 stables cell viability (WST-1). The settings on record: Mus musculus, BaF3, read-out: BaF3 Stables IC50 nM C1156Y. In general terms: Tetrazolium assays rely on reduction of a dye to a coloured formazan, in cell work by metabolically active cells.
The target of the next assay is ALK (WT) (Homo sapiens (Human), UniProt Q9UM73). The assay can be described thus: Cell free kinase assay (Carna Biosciences kinases). The class given is biochemical.
Sequence of ALK (WT) (Q9UM73 1060-1620): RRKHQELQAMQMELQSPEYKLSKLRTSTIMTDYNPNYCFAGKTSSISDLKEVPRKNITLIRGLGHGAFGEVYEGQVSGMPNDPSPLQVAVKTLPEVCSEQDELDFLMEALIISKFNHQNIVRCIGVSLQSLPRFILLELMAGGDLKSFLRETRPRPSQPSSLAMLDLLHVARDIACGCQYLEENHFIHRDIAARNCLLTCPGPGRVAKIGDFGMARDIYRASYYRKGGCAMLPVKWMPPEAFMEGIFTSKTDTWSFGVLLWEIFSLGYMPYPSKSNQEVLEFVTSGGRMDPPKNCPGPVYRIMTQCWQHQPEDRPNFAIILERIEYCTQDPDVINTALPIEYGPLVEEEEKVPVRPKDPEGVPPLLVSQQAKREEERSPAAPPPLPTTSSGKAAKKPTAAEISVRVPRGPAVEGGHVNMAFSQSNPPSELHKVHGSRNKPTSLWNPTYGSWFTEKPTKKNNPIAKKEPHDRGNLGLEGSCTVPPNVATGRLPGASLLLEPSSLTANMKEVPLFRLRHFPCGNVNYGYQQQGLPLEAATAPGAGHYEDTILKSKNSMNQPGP
Another assay deals with ALK R1275Q (Homo sapiens (Human), UniProt Q9UM73, R1275Q). In words: Cell free kinase assay (Carna Biosciences kinases). The class given is biochemical.
Sequence of ALK R1275Q (Q9UM73 1060-1620 R1275Q): as the sequence (Q9UM73 1060-1620) above, with R216Q counted along it
In the next assay the test system is EML4-ALK BaF3 cells. The assay can be described thus: BaF3 stables cell viability (WST-1). The conditions noted are these: Mus musculus, BaF3, read-out: BaF3 Stables IC50 nM EML4-ALK.
Assay [2] has as its system NPM-ALK R1275Q BaF3 cells. The assay can be described thus: BaF3 stables cell viability (WST-1). The settings on record: Mus musculus, BaF3, read-out: BaF3 Stables IC50 nM R1275Q.
The target in another assay is ALK (Homo sapiens (Human), UniProt Q9UM73). The assay can be described thus: In vitro kinase activity assay (LANCE TR-FRET).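 Also: kinase reactions with ATP and a poly-GT peptide substrate, phosphorylated product read by time-resolved FRET, 11-point curve from 10^−11 to 10^−5 M, DMSO as negative control.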 The settings on record: read-out: GTx-ALK IC50. The class given is biochemical.
Sequence of ALK (Q9UM73 19-1620): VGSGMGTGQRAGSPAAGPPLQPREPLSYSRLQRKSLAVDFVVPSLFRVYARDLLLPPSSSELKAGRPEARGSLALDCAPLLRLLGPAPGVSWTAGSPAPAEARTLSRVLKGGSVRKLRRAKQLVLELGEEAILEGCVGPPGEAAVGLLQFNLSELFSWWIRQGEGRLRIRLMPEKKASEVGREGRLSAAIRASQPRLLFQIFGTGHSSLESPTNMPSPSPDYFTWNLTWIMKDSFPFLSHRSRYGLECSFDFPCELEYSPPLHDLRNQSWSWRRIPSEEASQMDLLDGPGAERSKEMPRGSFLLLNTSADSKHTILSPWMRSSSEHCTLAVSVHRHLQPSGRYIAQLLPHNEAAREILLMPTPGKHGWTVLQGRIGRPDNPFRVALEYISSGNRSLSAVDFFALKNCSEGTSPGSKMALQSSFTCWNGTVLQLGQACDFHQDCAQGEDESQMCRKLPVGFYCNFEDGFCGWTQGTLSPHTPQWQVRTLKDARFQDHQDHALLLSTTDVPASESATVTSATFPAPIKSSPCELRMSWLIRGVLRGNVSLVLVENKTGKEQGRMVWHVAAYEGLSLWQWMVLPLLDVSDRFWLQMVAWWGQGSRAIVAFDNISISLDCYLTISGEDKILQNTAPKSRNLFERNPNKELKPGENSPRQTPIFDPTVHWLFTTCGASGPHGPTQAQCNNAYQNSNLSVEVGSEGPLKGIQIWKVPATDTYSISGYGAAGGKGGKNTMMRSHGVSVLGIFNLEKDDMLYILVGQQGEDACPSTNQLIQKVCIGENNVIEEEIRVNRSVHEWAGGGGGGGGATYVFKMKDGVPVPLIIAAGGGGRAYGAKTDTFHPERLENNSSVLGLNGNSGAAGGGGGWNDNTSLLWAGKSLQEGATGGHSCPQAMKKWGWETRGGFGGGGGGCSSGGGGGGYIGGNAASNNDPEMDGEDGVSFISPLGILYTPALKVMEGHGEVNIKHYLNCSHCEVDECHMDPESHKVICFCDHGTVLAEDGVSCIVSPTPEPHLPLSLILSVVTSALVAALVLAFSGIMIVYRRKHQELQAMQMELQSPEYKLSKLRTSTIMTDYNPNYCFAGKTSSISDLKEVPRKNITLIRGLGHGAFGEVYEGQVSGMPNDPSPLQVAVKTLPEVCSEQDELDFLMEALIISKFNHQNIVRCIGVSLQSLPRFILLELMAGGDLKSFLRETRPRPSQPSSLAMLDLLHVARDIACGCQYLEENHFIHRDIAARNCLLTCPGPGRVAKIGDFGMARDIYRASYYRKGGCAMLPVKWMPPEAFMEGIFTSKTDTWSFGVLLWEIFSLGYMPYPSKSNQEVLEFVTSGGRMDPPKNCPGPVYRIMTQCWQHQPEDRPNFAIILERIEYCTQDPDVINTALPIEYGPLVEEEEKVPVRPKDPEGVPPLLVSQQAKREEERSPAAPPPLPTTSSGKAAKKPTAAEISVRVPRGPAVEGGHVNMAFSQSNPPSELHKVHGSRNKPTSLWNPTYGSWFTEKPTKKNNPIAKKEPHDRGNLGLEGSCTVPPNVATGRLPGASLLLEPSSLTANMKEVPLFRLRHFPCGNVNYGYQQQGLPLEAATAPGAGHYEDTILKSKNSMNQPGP
The subject of assay [3] is EML4-ALK C1156Y BaF3 cells. In words: BaF3 stables cell viability (WST-1). The settings on record: Mus musculus, BaF3, read-out: BaF3 Stables IC50 nM C1156Y.
Assay [4] deals with EML4-ALK R1275Q BaF3 cells. In words: BaF3 stables cell viability (WST-1). The settings on record: Mus musculus, BaF3, read-out: BaF3 Stables IC50 nM R1275Q, EML4-ALK construct.
A further assay concerns NPM-ALK BaF3 cells. In words: BaF3 stables cell viability (WST-1). The settings on record: Mus musculus, BaF3, read-out: BaF3 Stables IC50 nM NPMALK.
A further assay concerns FLT3-ITD BaF3 cells. In words: BaF3 stables cell viability (WST-1). The settings on record: Mus musculus, BaF3, read-out: BaF3 Stables IC50 nM FLT3-ITD.

As to `Cc1ccc(F)cc1C[C@H](C)Nc1cc[nH]c(=O)c1-c1nc2cc3c(cc2[nH]1)CN(CCN(C)C)C3=O` (stereo in doubt) [Compound 45, 2-(4-(1-(5-Fluoro-2-methylphenyl)propan-2-ylamino)-2-oxo-1,2-dihydropyridin-3-yl)-6-(2-(dimethylamino)ethyl)-6,7-dihydroimidazo[4,5-f]isoindole-5(1H)-one], the IC50 in [1] was 72 ± 1.2 nM; against ALK (WT) it was 3.3 nM; at ALK R1275Q (read-out: Cell Free IC50 (nM) R1275O), 16.8 nM; in the assay on EML4-ALK BaF3 cells it was 66 ± 2.7 nM; in assay [2], 81 ± 4.2 nM; at ALK, 7 nM and 14 nM. Besides, the IC50 in [3] is 90 ± 3.2 nM; in assay [4], about 90 nM; in the assay on NPM-ALK BaF3 cells it was 46 ± 2 nM; with FLT3-ITD BaF3 cells, over 1 nM. Further, the “cell free R1275Q resistance” value on ALK R1275Q (vs ALK (WT)) turned out to be 4 fold.

One may read the IC50 as the concentration that gives 50% inhibition.
